Reference: publication PMC7862291, “Full-length in meso structure and mechanism of rat kynurenine 3-monooxygenase inhibition” (Communications Biology, 2021)
Where “and” joins values, the source holds several entries; their conditions need not be identical. Equal entries are not always repeated.

Experiments:
hKMO = biological target: T1, hKMO (Homo sapiens, UniProt O15229); assay: Human KMO enzyme (cell-free) assay, NADPH consumption by absorbance; format: biochemical
T1 construct: purchased Origene
Procedure: (§1) Human KMO was purchased from Origene and used to assay compounds. Full-length Rat-KMO purified for crystallisation was used to assay compounds. Full-length Rat-KMO-expressing membranes were used for mutant assays (Fig. 4b) only. […] Images were taken using Odyssey CLX (LI-COR Biosciences) and quantified using ImageStudio2.0 (LI-COR Biosciences) software.
(§2) Test compounds were dissolved in DMSO and diluted with assay buffer containing 50 mM HEPES, 2 mM MgCl2, 0.5 mM EGTA, 1 mM DTT, 0.05% Tween20 and 0.005% of antiform SI (pH = about 7.9) to prepare a 4% DMSO solution. […] After 5 min of pre-incubation, reactions were started by adding 10 μL of substrate solution containing 2.4 mM kynurenine and 0.6 mM NADPH. Reactions were run for 90 min at 30 °C, then terminated by adding 5 μL of stop buffer (40 mM maleimide, 2 mM WST-9 and 0.1 mM 1-methoky PMS in water). […] Liposomal assays were performed in the same manner except that the composition of the assay buffer was changed (phosphate-buffered saline, 2 mM MgCl2, 1 mM DTT, 0.05% Tween 20).
(§3) Compound assays were analysed and plotted on graphs using Prism (GraphPad Software Inc. San Diego, CA, USA).

Rat KMO = biological target: T2, Rat KMO (Rattus norvegicus, UniProt O88867); assay: Rat KMO enzyme (cell-free) assay, NADPH consumption by absorbance; format: biochemical
T2 construct: The GST-tagged full-length KMO (1-478) baculovirus vector contained a thrombin cleavage site; GST (thrombin cleavage site between GST and KMO) (N, cleaved yes); made in house; host or cells: Spodoptera frugiperda (Sf9), baculovirus
Procedure: as §1, §2, §3

[1] = biological target: T3, HEK293 cells stably expressing human KMO (Homo sapiens, UniProt O15229); assay: Cell-based human KMO inhibition assay (LC/MS of 3-hydroxykynurenine)
T3 construct: expressed in transfected cells
Procedure: (§4) HEK293 cells stably expressing human or rat KMO were maintained in DMEM containing 10% fetal bovine serum, 50 units/mL penicillin, 50 μg/mL streptomycin and 0.2 mg⁄mL zeocine. […] After 2 overnights, the medium was replaced with 10 μL/well of assay buffer (1 × HBSS containing 20 mM HEPES). Ten microliters per well of the diluted test compounds (final, 0–30 μM, 0.3% DMSO) were added to the respective wells. After ~30 min of pre-incubation at 37 °C, reactions were started by adding 20 μL of substrate solution containing 0.2 mM kynurenine. Reactions were run for 2 h at 37 °C, the assay buffer was discarded and the plate was immediately frozen and stored at −30 °C until LC/MS analysis.
(§5) An 80 µL volume of cold acetonitrile with 2% formic acid was added to the cell pellet in a 384-well plate and centrifuged at 3000 rpm for 10 min at 4 °C. A 40 µL volume of the supernatant was transferred to a new 384-well plate and evaporated to dryness under nitrogen gas at 45 °C. The residue was reconstituted in 100 µL of acetonitrile/water (10:90, v/v) with 0.1% formic acid, and 1 µL was injected into the LC-MS/MS system.
(§6) LC/MS/MS was performed on a Shimadzu UFLC Nexera X2 (Shimadzu Corporation, Japan) and an QTRAP® 5500 LC-MS/MS System (SCIEX, Framingham, USA). Chromatographic separation was performed using an Allure PFP Propyl analytical column (5 µm, 2.1 × 100 mm) maintained at 50 °C. The autosampler temperature was set at 15 °C. The mobile phase consisted of formic acid/water/acetonitrile/methanol (0.5/500/250/250, v/v/v/v) and the flow rate was set at 0.3 mL/min. 3-hydroxykynurenine was eluted from the LC column at a retention time of 1.2 min. The MS system was operated using electrospray ionization (ESI) in positive mode. The optimum conditions were curtain gas, 20 psi; ion spray voltage, 5500 V; heated nebulizer temperature (TEM), 700 °C; nebulizing gas (GS1), 70 psi; and heater gas (GS2), 70 psi. […] Analyst® software (SCIEX, Framingham, USA) was used for system control and MultiQuant™ Software (SCIEX, Framingham, USA) was used for data analysis.
as §3

[2] = biological target: T4, HEK293 cells stably expressing rat KMO (Rattus norvegicus, UniProt O88867); assay: Cell-based rat KMO inhibition assay (LC/MS of 3-hydroxykynurenine)
T4 construct: expressed in transfected cells
Procedure: as §4, §5, §6, §3

T2 sequence (O88867 whole entry): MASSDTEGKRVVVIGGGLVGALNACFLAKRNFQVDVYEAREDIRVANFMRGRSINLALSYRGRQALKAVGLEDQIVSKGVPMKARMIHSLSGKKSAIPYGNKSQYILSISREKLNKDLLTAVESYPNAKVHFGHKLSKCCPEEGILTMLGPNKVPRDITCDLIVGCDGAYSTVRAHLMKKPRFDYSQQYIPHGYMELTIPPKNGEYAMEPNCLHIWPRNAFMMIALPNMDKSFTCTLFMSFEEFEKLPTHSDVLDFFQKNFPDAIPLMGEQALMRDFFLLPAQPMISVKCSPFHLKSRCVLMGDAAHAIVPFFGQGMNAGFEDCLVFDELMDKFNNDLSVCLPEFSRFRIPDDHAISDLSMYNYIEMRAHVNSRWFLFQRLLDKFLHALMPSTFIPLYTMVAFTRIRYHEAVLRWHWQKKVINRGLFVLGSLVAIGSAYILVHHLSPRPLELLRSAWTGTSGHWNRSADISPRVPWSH
T4 sequence (O88867 whole entry): as above
T3 sequence (O15229 whole entry): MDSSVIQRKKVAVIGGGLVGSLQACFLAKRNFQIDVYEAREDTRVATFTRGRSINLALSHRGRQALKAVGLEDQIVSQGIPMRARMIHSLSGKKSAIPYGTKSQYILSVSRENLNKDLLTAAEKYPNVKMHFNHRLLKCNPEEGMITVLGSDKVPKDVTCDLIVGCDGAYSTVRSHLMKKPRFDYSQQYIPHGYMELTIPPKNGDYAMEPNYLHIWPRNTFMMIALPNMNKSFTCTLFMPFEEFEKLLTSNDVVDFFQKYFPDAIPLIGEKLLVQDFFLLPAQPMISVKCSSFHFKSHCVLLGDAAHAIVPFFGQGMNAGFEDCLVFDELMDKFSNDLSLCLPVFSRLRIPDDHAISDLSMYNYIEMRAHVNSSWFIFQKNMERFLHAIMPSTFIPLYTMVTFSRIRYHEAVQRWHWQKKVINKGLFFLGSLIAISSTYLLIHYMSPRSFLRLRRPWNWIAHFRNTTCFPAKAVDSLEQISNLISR
T1 sequence (O15229 whole entry): as above

Compound: Cc1cnn(-c2cccc(C(=O)O)c2)c1-c1ccc(Cl)c(F)c1 [Compound 2]
- IC50 (hKMO; cell-free enzyme assay, high kynurenine, read-out: Human KMO IC50): 0.0071 µM
- inhibition rate, Hs-KMO cell-free assay (Figure 1A source data) (hKMO; conc 0.0003 μM, duplicates): 0.420% and -1.736%
- inhibition rate, Hs-KMO cell-free assay (Figure 1A source data) (hKMO; conc 0.001 μM, duplicates): 9.914%
- inhibition at 0.001 µM (hKMO; conc 0.001 μM, duplicates, read-out: inhibition rate, Hs-KMO cell-free assay (Figure 1A source data)): 12.1%
- inhibition rate, Hs-KMO cell-free assay (Figure 1A source data) (hKMO; conc 0.003 μM, duplicates): 25.289%
- inhibition at 0.003 µM (hKMO; conc 0.003 μM, duplicates, read-out: inhibition rate, Hs-KMO cell-free assay (Figure 1A source data)): 27.2%
- inhibition rate, Hs-KMO cell-free assay (Figure 1A source data) (hKMO; conc 0.01 μM, duplicates): 59.651%
- inhibition at 0.01 µM (hKMO; conc 0.01 μM, duplicates, read-out: inhibition rate, Hs-KMO cell-free assay (Figure 1A source data)): 57.4%
- inhibition rate, Hs-KMO cell-free assay (Figure 1A source data) (hKMO; conc 0.03 μM, duplicates): 87.349%
- inhibition at 0.03 µM (hKMO; conc 0.03 μM, duplicates, read-out: inhibition rate, Hs-KMO cell-free assay (Figure 1A source data)): 85.6%
- inhibition rate, Hs-KMO cell-free assay (Figure 1A source data) (hKMO; conc 0.1 μM, duplicates): 95.022%
- inhibition at 0.1 µM (hKMO; conc 0.1 μM, duplicates, read-out: inhibition rate, Hs-KMO cell-free assay (Figure 1A source data)): 96.5%
- inhibition rate, Hs-KMO cell-free assay (Figure 1A source data) (hKMO; conc 0.3 μM, duplicates): 105.860%
- inhibition at 0.3 µM (hKMO; conc 0.3 μM, duplicates, read-out: inhibition rate, Hs-KMO cell-free assay (Figure 1A source data)): 100%
- inhibition rate, Hs-KMO cell-free assay (Figure 1A source data) (hKMO; conc 1 μM, duplicates): 100.287%
- inhibition at 1 µM (hKMO; conc 1 μM, duplicates, read-out: inhibition rate, Hs-KMO cell-free assay (Figure 1A source data)): 102%
- IC50 (Rat KMO; cell-free enzyme assay, high kynurenine): 0.15 µM
- inhibition rate, Rat-KMO cell-free assay (Figure 1B source data) (Rat KMO; conc 0.03 μM, duplicates): 20.744%
- inhibition at 0.03 µM (Rat KMO; conc 0.03 μM, duplicates, read-out: inhibition rate, Rat-KMO cell-free assay (Figure 1B source data)): 18%
- inhibition rate, Rat-KMO cell-free assay (Figure 1B source data) (Rat KMO; conc 0.1 μM, duplicates): 47.122%
- inhibition at 0.1 µM (Rat KMO; conc 0.1 μM, duplicates, read-out: inhibition rate, Rat-KMO cell-free assay (Figure 1B source data)): 46%
- inhibition rate, Rat-KMO cell-free assay (Figure 1B source data) (Rat KMO; conc 0.3 μM, duplicates): 63.717%
- inhibition at 0.3 µM (Rat KMO; conc 0.3 μM, duplicates, read-out: inhibition rate, Rat-KMO cell-free assay (Figure 1B source data)): 62.8%
- inhibition rate, Rat-KMO cell-free assay (Figure 1B source data) (Rat KMO; conc 1 μM, duplicates): 81.108%
- inhibition at 1 µM (Rat KMO; conc 1 μM, duplicates, read-out: inhibition rate, Rat-KMO cell-free assay (Figure 1B source data)): 84.3%
- inhibition rate, Rat-KMO cell-free assay (Figure 1B source data) (Rat KMO; conc 3 μM, duplicates): 90.360%
- inhibition at 3 µM (Rat KMO; conc 3 μM, duplicates, read-out: inhibition rate, Rat-KMO cell-free assay (Figure 1B source data)): 87.2%
- inhibition rate, Rat-KMO cell-free assay (Figure 1B source data) (Rat KMO; conc 10 μM, duplicates): 90.175%
- inhibition at 10 µM (Rat KMO; conc 10 μM, duplicates, read-out: inhibition rate, Rat-KMO cell-free assay (Figure 1B source data)): 91.4%
- inhibition rate, Rat-KMO cell-free assay (Figure 1B source data) (Rat KMO; conc 30 μM, duplicates): 94.310%
- inhibition at 30 µM (Rat KMO; conc 30 μM, duplicates, read-out: inhibition rate, Rat-KMO cell-free assay (Figure 1B source data)): 91.7%
- inhibition rate, Rat-KMO cell-free assay (Figure 1B source data) (Rat KMO; conc 100 μM, duplicates): 101.150%
- inhibition at 100 µM (Rat KMO; conc 100 μM, duplicates, read-out: inhibition rate, Rat-KMO cell-free assay (Figure 1B source data)): 89.9%
- inhibition at 0.03 µM ([1]; HEK293, conc 0.03 μM, duplicates, read-out: inhibition rate, Hs-KMO cellular assay (Figure 1C source data)): 51.3%
- inhibition at 0.1 µM ([1]; HEK293, conc 0.1 μM, duplicates, read-out: inhibition rate, Hs-KMO cellular assay (Figure 1C source data)): 76.7%
- inhibition at 0.3 µM ([1]; HEK293, conc 0.3 μM, duplicates, read-out: inhibition rate, Hs-KMO cellular assay (Figure 1C source data)): 92.2%
- inhibition at 1 µM ([1]; HEK293, conc 1 μM, duplicates, read-out: inhibition rate, Hs-KMO cellular assay (Figure 1C source data)): 102%
- inhibition at 3 µM ([1]; HEK293, conc 3 μM, duplicates, read-out: inhibition rate, Hs-KMO cellular assay (Figure 1C source data)): 104%
- inhibition at 10 µM ([1]; HEK293, conc 10 μM, duplicates, read-out: inhibition rate, Hs-KMO cellular assay (Figure 1C source data)): 104%
- inhibition at 30 µM ([1]; HEK293, conc 30 μM, duplicates, read-out: inhibition rate, Hs-KMO cellular assay (Figure 1C source data)): 105%
- IC50 ([1]; HEK293 cells expressing human KMO, LC/MS, read-out: Human cell-based assay IC50): 0.03 µM
- inhibition rate, Hs-KMO cellular assay (Figure 1C source data) ([1]; conc 0.03 μM, duplicates): 49.094%
- inhibition rate, Hs-KMO cellular assay (Figure 1C source data) ([1]; conc 0.1 μM, duplicates): 80.095%
- inhibition rate, Hs-KMO cellular assay (Figure 1C source data) ([1]; conc 0.3 μM, duplicates): 94.377%
- inhibition rate, Hs-KMO cellular assay (Figure 1C source data) ([1]; conc 1 μM, duplicates): 98.875%
- inhibition rate, Hs-KMO cellular assay (Figure 1C source data) ([1]; conc 3 μM, duplicates): 103.175%
- inhibition rate, Hs-KMO cellular assay (Figure 1C source data) ([1]; conc 10 μM, duplicates): 102.973%
- inhibition rate, Hs-KMO cellular assay (Figure 1C source data) ([1]; conc 30 μM, duplicates): 104.572%
- inhibition at 0.1 µM ([2]; HEK293, conc 0.1 μM, duplicates, read-out: inhibition rate, Rat-KMO cellular assay (Figure 1D source data)): 6.06%
- inhibition at 0.3 µM ([2]; HEK293, conc 0.3 μM, duplicates, read-out: inhibition rate, Rat-KMO cellular assay (Figure 1D source data)): 28.6%
- inhibition at 1 µM ([2]; HEK293, conc 1 μM, duplicates, read-out: inhibition rate, Rat-KMO cellular assay (Figure 1D source data)): 29.2%
- inhibition at 3 µM ([2]; HEK293, conc 3 μM, duplicates, read-out: inhibition rate, Rat-KMO cellular assay (Figure 1D source data)): 55.7%
- inhibition at 10 µM ([2]; HEK293, conc 10 μM, duplicates, read-out: inhibition rate, Rat-KMO cellular assay (Figure 1D source data)): 81.2%
- inhibition at 30 µM ([2]; HEK293, conc 30 μM, duplicates, read-out: inhibition rate, Rat-KMO cellular assay (Figure 1D source data)): 94.7%
- IC50 ([2]; HEK293 cells expressing rat KMO, LC/MS): 1.9 µM
- inhibition rate, Rat-KMO cellular assay (Figure 1D source data) ([2]; conc 0.1 μM, duplicates): 5.770%
- inhibition rate, Rat-KMO cellular assay (Figure 1D source data) ([2]; conc 0.3 μM, duplicates): 28.560%
- inhibition rate, Rat-KMO cellular assay (Figure 1D source data) ([2]; conc 1 μM, duplicates): 33.805%
- inhibition rate, Rat-KMO cellular assay (Figure 1D source data) ([2]; conc 3 μM, duplicates): 50.255%
- inhibition rate, Rat-KMO cellular assay (Figure 1D source data) ([2]; conc 10 μM, duplicates): 82.819%
- inhibition rate, Rat-KMO cellular assay (Figure 1D source data) ([2]; conc 30 μM, duplicates): 94.698%
